According to patent US8354438B2, “Neurological functions” (priority 2001, dated 2013):
“And” between values parts separate entries of the source, which are not always exact repeats. Equal values may be shown once.

Assays:
[1] = tested on: carnosinase; settings: compared with the parent compound carnosine; Boldyrev 2000; cited from earlier work
[2] = tested on: animals subject to hyperbaric oxygen; settings: reported by Bondarenko; cited from earlier work
[3] = tested on: patients with autism, pervasive developmental disorder, brain injury, cerebral palsy and epilepsy; assay: Carnosine dietary supplement to improve cognitive functions impaired by neurological disorders (Example 2); assay type: in vivo, human; settings: carnosine 200 mg to 2,000 mg per day, orally
Protocol: It is hypothesized that carnosine may improve cognitive functions of patients suffering from various disorders. These disorders include autism, pervasive developmental disorder, brain injury, cerebral palsy and epilepsy. There are currently no drugs or treatments available whose primary function is to elevate carnosine levels as a treatment for the previously mentioned disorders. Patients afflicted with the above disorders were treated with a dietary supplement of carnosine in dosages of 200 mg to 2,000 mg per day. The carnosine supplement is available in gel capsule form from Alfa Chem (Kings Point, N.Y.).
The carnosine supplement can be administered orally several times daily. The results indicated an increase in cognitive processing speed, an increase in language skills, and improved motor skills. Patients have increased their amount of speech and language and the level of maturity of speech.

[4] = tested on: adult clinical trials; settings: among 691 cases of adult clinical trials; Matsukura and Tanaka 2000; cited from earlier work
[5] = tested on: animals; settings: both decreasing mortality and improving recovery; Stvolinsky and Dobrota 2000; cited from earlier work
[6] = tested on: children with Autistic Spectrum Disorder; assay: 8 week double-blind placebo-controlled carnosine study in children with Autistic Spectrum Disorder (Example 4); assay type: in vivo, human; settings: for Fax ratings (week 2 vs. week 6): on carnosine 400 mg twice a day, Mean (SD)
Description: The following protocol was designed to target the purported brain region of dysfunction in ASD, via supplementation with a naturally-occurring amino acid which is believed to act upon frontal lobe systems or GABA receptors. We sought to eliminate the “expectancy effect” of medication augmentation by enrolling children in a study so that both the clinicians and parents were blinded to group assignment.
Children were included for study if they met the following criteria: ages 3-12, prior diagnoses of Autistic Spectrum Disorder (including either Pervasive Developmental Disorder or Autistic Disorder, by DSMIVR). American Psychiatric Association. Diagnostic and Statistical Manual of Mental Disorders, 4th ed. Washington D.C., 1993. […] Children were enrolled in the study irrespective of cognitive ability level.
All children were tested at baseline in the following domains: expressive language (Expressive One Word Picture Vocabulary test, EOWPVT), receptive language (Receptive One Word Picture Vocabulary test, ROWPVT), autism severity ratings (Childhood Autism Rating Scale; CARS, and Gilliam Autism Rating Scales; GARS), and Clinical Global linpresssions (CGI) completed by parents. At baseline and eight-week testing, all children underwent the CARS, GARS, EOWPVT, ROWPVT, and CGI. Schopler, E., Reichler, R. J., Renner, B. R. The Childhood Autism Rating Scale: CARS. Los Angeles, Calif.: Western Psychological Sciences 1988. Gilliam, J. E. The Gilliam Autism Rating Scale: GARS. Austin, Tex.: Pro-Ed Inc. 1995. Gardner, M. F. Receptive One-Word Picture Vocabulary Test: ROWPVT. Novato, Calif.: Academic Therapy Publications 1985. Gardner, M. F. Expressive One-Word Picture Vocabulary Test (Revised): EOWPVT-R. Novato, Calif.: Academeic Therapy Publication 1990. Children were tested with their parents in the room of a pediatric neurology clinic in a room dedicated to assessment. Parents signed informed written consent (approved by the Lake Forest Hospital Institutional Review Board) before being randomly assigned to either active agent or placebo, and reporting of adverse events was explained per office emergency policy. Because of our prior experience with the substance in an open-label format, we were able to caution regarding the following potential adverse events: hyperactivity, excitability
Both placebo and active substance were identical in powdered appearance, without taste or smell. All pills were contained by a gelatin capsule; parents were instructed to mix the powder with either food or drink. Dosage of carnosine was 400 mg by mouth twice a day.
Every two weeks, parents faxed a CGI regarding their child. The CGI was a 5 point rating scale covering the following domains: (1) Socialization, interaction with others during play, (2) Spontaneous, expressive language or vocalizations, (3) Attention span, “focus”/eye contact, alertness level, (4) Agitation and hyperactivity or lethargy, energy level, Petroff, O. A. C. et al., Neurology 2001; 56:709-715. Coordination, body use, gross motor movements, (6) Anxiety, rigidity, preservation, adaptation to change. A score of “0” indicated “No Change”, a score of “5” indicated a “Great improvement.” Parents were not allowed to refer back to faxes from the prior two week period, so that each rating was essentially “blinded” to the week before. An overall baseline CGI was then compared with an ending CGI.
Thirty-one children (21 M, mean age=7.45; range 3.2-12.5) meeting inclusion criteria were enrolled in an 8 week, double-blind placebo-controlled study. Children were entered randomly into one of two groups: Group I (n=17) received a placebo for the first 8 weeks, while Group II (n=14) received the active substance. Children were assessed at Baseline in the following domains: […]

[7] = tested on: rat model genetically predisposed to audiogenic epilepsy; settings: carnosine injected prior to acoustic stress; Stvolinsky and Dobrota 2000; cited from earlier work
[8] = tested on: children with intractable seizures; assay: L-carnosine add-on therapy in children with intractable seizures, EEG and seizure frequency (Example 3); assay type: in vivo, human; settings: after 10 weeks at 400 mg p.o. b.i.d.
Description: L-carnosine is an amino acid dipeptide (histidine and alanine), that may indirectly affect spike and wave discharges by altering GABA bioavailability or affecting copper and zinc influx at the cellular level. […] We hypothesized that carnosine ingestion would modulate homocarnosine in the brain, causing spike and wave activity to decrease and seizure control to improve. We gave L-carnosine to four patents as add-on therapy for intractable spike-wave discharge and documented changes in both clinical (overt seizures) and physiological (EEG) status.
Seven children (3 female, 4 male, age range 2-12) met inclusion criteria. All had intractable seizures for at least two years, had failed at least 3 anticonvulsants, had documented, abnormal generalized or secondarily generalized spike-wave, atypical absence, or Lennox-Gastaut Syndrome. All families signed written consent from an IRB approved protocol. All children were evaluated with a Baseline EEG on the same day they were started on 400 mg b.i.d. of L-carnosine. Carnosine from, for example, Alfa Chem in either powder or capsule form. Carnosine may also be obtained from MAYPRO (Purchase, N.Y.), as well as various other suppliers. Post-treatment EEG was undertaken after 10 weeks of L-carnosine therapy. No other concurrent medications were changed. All patients had failed multiple medication treatments prior to the addition of carnosine. These medications included valproic acid, topimirate, benzodiazepines, steroids, carbamazepine, phenytoin, zonisamide, lamotrigine, and phenobarbital.

[9] = 8-Week on carnosine 400 mg twice a day, n = 14, Mean (SD), vs baseline .01, vs placebo NS
[10] = 8-Week on carnosine 400 mg twice a day, n = 14, Mean (SD), vs baseline NS, vs placebo NS
[11] = Baseline, active carnosine group n = 14, Mean (SD)

## NCCCC(=O)N[C@@H](Cc1cnc[nH]1)C(=O)O [homocarnosine, γ-Aminobutyryl-L-histidine]
[1]
  rate of hydrolysis: negligible
[2]
  convulsions under hyperbaric oxygen: protects against the convulsions

## β-Alanlyl-L-histidine [carnosine]
[3]
  amount of speech and language and level of maturity of speech: increased
  cognitive processing speed: increase
  language skills: increase
  motor skills: improved
  receptive language: improved
[4]
  symptomatic side effects: no symptomatic side effects
[5]
  resistance towards ionizing radiation, hypobaric hypoxia, and supercooling: enhances the resistance
[6]; 8-Week on carnosine 400 mg by mouth twice a day, n = 14, Mean (SD), vs baseline .06, vs placebo NS
  CGI: 16.39 (4.36)
[6]; [9]
  GARS: 44.36 (14.94) and 44.35 (14.93)
  GARS Socialization Scale: 13.36 (6.58)
  ROWPVT (age-adjusted): 47.85 (28.37) and 47.86 (28.37)
  ROWPVT (raw): 44.64 (26.56)
[6]; 8-Week on carnosine 400 mg twice a day, n = 14, Mean (SD), vs baseline .03, vs placebo NS
  GARS Communication Scale: 18.14 (6.27)
[6]; 8-Week on carnosine 400 mg twice a day, n = 14, Mean (SD), vs baseline .04, vs placebo NS
  GARS Behavior Scale: 12.85 (5.95)
[6]; 8-Week on carnosine 400 mg twice a day, n = 14, Mean (SD), vs baseline .07, vs placebo NS
  CARS: 29.75 (7.53)
[6]; [10]
  EOWPVT (age-adjusted): 43.78 (28.22)
  EOWPVT (raw): 37.28 (25.66)
[6]; [11]
  CARS: 31.71 (6.55)
  CGI: 14.50 (3.65)
  EOWPVT (age-adjusted): 40.71 (23.44)
  EOWPVT (raw): 35.36 (20.87)
  GARS: 55.50 (16.35)
  GARS Behavior Scale: 15.71 (6.65)
  GARS Communication Scale: 21.64 (7.99)
  GARS Socialization Scale: 18.14 (6.30)
  ROWPVT (age-adjusted): 40.57 (24.55)
  ROWPVT (raw): 38.00 (23.68)
[6]; alleviated by decreasing the dose
  side effects reported by parents: only sporadic hyperactivity
[6]; carnosine 400 mg twice a day, 8 weeks
  discontinuation of the study due to side effects: Not a single child
[6]; supplementation with carnosine, 8 weeks
  receptive speech, socialization, and behavior in children with autistic spectrum disorders: significantly improve
[6]; week 2 (column Baseline)
  Fax ratings (week 2 vs. week 6): 2.03 (2.24)
[6]; week 6 (column 8-Week), vs week 2 .04
  Fax ratings (week 2 vs. week 6): 4.92 (5.69)
[7]
  audiogenic seizures: moderation of such seizures
[8]
  patients with improved seizure frequency (of 7): 7 patients
[8]; 7 children
  children with decreased frequency of polyspikes: 2 children
  children with improved background and decreased electrographic slow-spike and wave activity: 2 children
  children with improved secondarily generalized spike-wave activity: 1 child
  children with no significant EEG changes: 2 children
[8]; add-on
  children with documented improved EEG findings (of 7): 5 children
[8]; not evaluated formally
  patients with reported improvements in global cognition, behavior, and language function (of 7): 7 patients
